Assay results reported in patent US8187822B2, “Methods to identify modulators” (Givaudan S.A., priority 2007, dated 2012).
“Also recorded” adds a separate entry of the source. Like-named read-outs stand apart in the source and are kept apart here.

Legend:
[1] = test system: cells expressing only Gα16gustducin44 but no TAS2 receptor; assay: Fluo-4 calcium assay, negative control cells without bitter receptor; type: cell-based; details: for Neg. Control ΔF/F0: 0.02% DMSO
Procedure: HEK293T/Gα16-gustducin 44 cells were used; they are formed as described in WO 2004/055048. The host cell line HEK-293T is commercially available from the American Tissue Culture Collection (ATCC), ATCC®# CRL-11268
(§1) At day 0, the HEK293T cell line expressing Gα16-gustducin44 and a TAS2R bitter taste receptor formed as described in examples 2b or 2c was seeded in antibiotic-free growth medium (standard DMEM with 10% (v/v) heat-inactivated fetal bovine serum, 2 mM L-glutamine[…]) into black wall/clear bottom 96-well plates, coated with poly(ethylenimine) (0.005% v/v) at a concentration of 15,000 cells per well and incubated for 48 hours in humidified atmosphere (37° C., 5% CO2).
(§2) At the time of the assay, the growth medium was discarded and the cells were in humidified atmosphere (37° C., 5% CO2) for 1 hour with 50 μl of loading buffer consisting of 1.5 μM Fluo-4 AM and […] probenicid (Sigma-Aldrich, St. Louis, Mo., US) in DMEM.
(§3) Afterwards, the 96-well plate was washed 5 times with 100 μl of assay buffer (130 mM NaCl, 5 mM KCl, 10 mM HEPES, 2 mM CaCl2, and 5 mM dextrose, pH 7.4) per well, using an automated plate washer (BioTek). The plate was further incubated for 30 minutes at room temperature in the dark to allow for complete de-esterification of the Fluo-4. Afterwards the plate was washed 5 times with 100 μl of assay buffer per well, and reconstituted with 100 μl of assay buffer per well.
(§4) For assay reading, the plate was placed in a Fluorometric Imaging Plate Reader (FLIPR) (FLIPR-TETRA™, Molecular Devices, Sunnyvale, Calif., US), and receptor activation was initiated by addition of 100 μl of a twofold concentrated agonist stock solution (to give the desired agonist end concentration when added to the 100 microliter assay buffer volume), which was prepared in assay buffer.
(§5) Fluorescence was continuously monitored for 20 seconds to give a signal baseline (averaged to give F0) prior to agonist addition and for 120 seconds after agonist addition. The change in signal divided by F0 gives ΔF/F0 indicated in the table, with ΔF being the maximum signal occurring within the 120 seconds minus the minimum signal (occurring within the 120 seconds after agonist addition.
The obtained calcium signals were corrected for the response of cells expressing only the G Protein α subunit (Gα16-gustducin44) and normalized to the fluorescence of cells prior to the stimulus using ΔF/F0 (Fmax−Fmin/F0).
To confirm that the cell line formed in example 2c stably expresses the bitter taste receptor TAS2R44, a concentration-response curve for saccharin, a known agonist of TAS2R44, was generated. […] The standard deviation (+/−STD) is also indicated.
As a negative control to determine unspecific signals, each of the applied concentrations of sucralose was applied to cells expressing only Gα16gustducin44.
As a negative control, each agonist and each agonist with the antagonist/test compound (test cpd A) is applied to cells expressing only Gal 6gustducin44 but no TAS2 receptor (see results in table 7 herein below).

[2] = target: T1, TAS2R44 (Homo sapiens, UniProt P59538, L162M); assay: Fluo-4 calcium assay, HEK293T cells expressing Gα16-gustducin44 and TAS2R44; type: cell-based; details: for TAS2R44 ΔF/F0: 0.02% DMSO; for Sucralose ΔF/F0 / Sucralose + test cpd A ΔF/F0: TAS2R44 expressing cells; for Sucralose + test cpd A ΔF/F0: 25 μM test cpd A
T1 construct: RSS tag (first 45 amino acids of rat somatostatin receptor subtype 3, plus EcoRI site) (N); expressed in transfected cells
T1 sequence (P59538 with tags, fused parts or gaps L162M): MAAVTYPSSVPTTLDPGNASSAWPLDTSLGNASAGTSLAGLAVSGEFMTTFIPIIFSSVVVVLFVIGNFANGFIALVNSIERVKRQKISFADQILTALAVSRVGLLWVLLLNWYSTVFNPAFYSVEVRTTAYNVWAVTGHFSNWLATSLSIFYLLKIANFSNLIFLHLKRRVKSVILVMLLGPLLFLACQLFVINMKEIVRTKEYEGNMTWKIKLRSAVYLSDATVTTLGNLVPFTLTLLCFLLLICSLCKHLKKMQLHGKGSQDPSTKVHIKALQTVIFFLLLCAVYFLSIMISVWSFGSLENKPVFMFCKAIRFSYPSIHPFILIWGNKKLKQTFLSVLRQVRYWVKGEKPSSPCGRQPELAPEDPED
Procedure: Cell lines that stably expresses a SABR (TAS2R44, TAS2R1, TAS2R10) was generated by transfecting pcDNA3.1Zeo-SABR into HEK293T/Gα16-gustducin 44 cells (both formed as described in example 1). The host cell line HEK-293T is commercially available from the American Tissue Culture Collection (ATCC), ATCC®# CRL-11268.
The expression of TAS2R44 was evaluated by testing for the presence of a functional response to the known TAS2R44 agonist saccharin (as described in WO 2004/029087) in addition to sucralose, which was determined via automated calcium imaging on the FLIPR-TETRA™ (Molecular Devices, Sunnyvale, Calif., US) as described in example 3. One clone was selected resulting in the HEK293T/Gα16-gustducin 44/TAS2R44 cell line.
Fluo-4AM (Invitrogen, Carlsbad, Calif., US) is a fluorescent indicator of intracellular calcium dynamics (change in concentration) and allows monitoring changes in the calcium concentration, particularly an increase in response to receptor activation occurring after agonist exposure.
as §1, §2, §3, §4, §5
All data was collected from at least two independent experiments each carried out in triplicate.
A concentration-response analysis was performed and EC50 values were calculated by nonlinear regression using the function f(x)=(a−d)/(1+(x/C)^nh)+d; with a=minimum signal, d=maximum signal, nh=hill coefficient, C=EC50, and x=agonist concentration. EC50 is the molar concentration of an agonist which produces 50% of the maximum possible effective response for that agonist.
The obtained calcium signals were corrected for the response of cells expressing only the G Protein α subunit (Gα16-gustducin44) and normalized to the fluorescence of cells prior to the stimulus using ΔF/F0 (Fmax−Fmin/F0). […]

`OC[C@H]1O[C@H](O[C@]2(CCl)O[C@H](CCl)[C@@H](O)[C@@H]2O)[C@H](O)[C@@H](O)[C@H]1Cl` [Sucralose, sucralose] was tested. Which “signal in negative control, in words” value ([1]; host cells expressing only Gα16-gustducin44) did it give?
Its value is “No significant change”.

And the “Neg. Control ΔF/F0” value ([1]; sucralose 0.3906 mM)?
The value was 0.014.

What about the “Neg. Control ΔF/F0” value ([1]; sucralose 0.7813 mM) of the same molecule?
The value was 0.014.

What about the “Neg. Control ΔF/F0” value ([1]; sucralose 1.5625 mM) of the same molecule?
The value was 0.017.

And the “Neg. Control ΔF/F0” value ([1]; sucralose 3.1250 mM)?
The value was 0.012.

What about the “Neg. Control ΔF/F0” value ([1]; sucralose 6.2500 mM) of the same molecule?
Its value is 0.017.

What about the “Neg. Control ΔF/F0” value ([1]; sucralose 12.5000 mM) of the same molecule?
Its value is 0.016.

What about the “Neg. Control ΔF/F0” value ([1]; sucralose 25.0000 mM) of the same molecule?
Its value is 0.016.

And the “Neg. Control ΔF/F0” value ([1]; sucralose 50.0000 mM)?
The value was 0.018.

What about the “Neg. Control ΔF/F0” value ([1]; sucralose 100.0000 mM) of the same molecule?
The value was 0.021.

What about the “Sucralose ΔF/F0” value ([1]; sucralose alone 100.0000 mM, cells without bitter receptor (Example 9)) of the same molecule?
The value was −0.179.

What about the EC50 ([2]; agonist alone, stable TAS2R44 cell line (Examples 4, 5), read-out: calculated EC50 value) of the same molecule?
Its EC50 is 16.7 ± 1.01 mM.

What about the EC50 ([2]; agonist sucralose alone, TAS2R44 (Example 9), read-out: EC50 Agonist) of the same molecule?
The EC50 was 36.3 ± 5.7 mM.

What about the “agonist activity at TAS2R44 (calcium signaling), in words” value ([2]; cells stably expressing human TAS2R44) of the same molecule?
The value was “significant increase in calcium signaling”.

And the “TAS2R44 ΔF/F0” value ([2]; sucralose 0.3906 mM)?
Its value is 0.023.

What about the “TAS2R44 ΔF/F0” value ([2]; sucralose 0.7813 mM) of the same molecule?
Its value is 0.025.

What about the “TAS2R44 ΔF/F0” value ([2]; sucralose 1.5625 mM) of the same molecule?
The value was 0.026.

And the “TAS2R44 ΔF/F0” value ([2]; sucralose 3.1250 mM)?
The value was 0.043.

And the “TAS2R44 ΔF/F0” value ([2]; sucralose 6.2500 mM)?
Its value is 0.059.

And the “TAS2R44 ΔF/F0” value ([2]; sucralose 12.5000 mM)?
Its value is 0.109.

And the “TAS2R44 ΔF/F0” value ([2]; sucralose 25.0000 mM)?
Its value is 0.197.

What about the “TAS2R44 ΔF/F0” value ([2]; sucralose 50.0000 mM) of the same molecule?
The value was 0.256.

And the “TAS2R44 ΔF/F0” value ([2]; sucralose 100.0000 mM)?
Its value is 0.260.

What about the “Sucralose ΔF/F0” value ([2]; sucralose alone 0.3906 mM (0.02% DMSO control of Example 9)) of the same molecule?
The value was 0.046.

What about the “Sucralose ΔF/F0” value ([2]; sucralose alone 0.7813 mM (0.02% DMSO control of Example 9)) of the same molecule?
Its value is 0.038.

And the “Sucralose ΔF/F0” value ([2]; sucralose alone 1.5625 mM (0.02% DMSO control of Example 9))?
Its value is 0.042.

What about the “Sucralose ΔF/F0” value ([2]; sucralose alone 3.1250 mM (0.02% DMSO control of Example 9)) of the same molecule?
Its value is 0.030.

And the “Sucralose ΔF/F0” value ([2]; sucralose alone 6.2500 mM (0.02% DMSO control of Example 9))?
Its value is 0.027.

And the “Sucralose ΔF/F0” value ([2]; sucralose alone 12.5000 mM (0.02% DMSO control of Example 9))?
The value was 0.051.

What about the “Sucralose ΔF/F0” value ([2]; sucralose alone 25.0000 mM (0.02% DMSO control of Example 9)) of the same molecule?
The value was 0.110.

What about the “Sucralose ΔF/F0” value ([2]; sucralose alone 50.0000 mM (0.02% DMSO control of Example 9)) of the same molecule?
The value was 0.192.

What about the “Sucralose ΔF/F0” value ([2]; sucralose alone 100.0000 mM (0.02% DMSO control of Example 9)) of the same molecule?
Its value is 0.352.

`CC1=CCC(C/C=C/C(=O)O)C1(C)C` (stereo not shown) [test cpd A, (E)-4-(2,2,3-trimethylcyclopent-3-enyl)but-2-enoic acid] was tested. Which “Sucralose + test cpd A ΔF/F0” value ([1]; 25 μM test cpd A, sucralose 100.0000 mM, cells without bitter receptor) did it give?
Its value is −0.175.

What about the “Sucralose + test cpd A ΔF/F0” value ([2]; sucralose 0.3906 mM) of the same molecule?
The value was 0.011.

What about the “Sucralose + test cpd A ΔF/F0” value ([2]; sucralose 0.7813 mM) of the same molecule?
Its value is 0.010.

And the “Sucralose + test cpd A ΔF/F0” value ([2]; sucralose 1.5625 mM)?
Its value is 0.016.

What about the “Sucralose + test cpd A ΔF/F0” value ([2]; sucralose 3.1250 mM) of the same molecule?
The value was 0.005.

And the “Sucralose + test cpd A ΔF/F0” value ([2]; sucralose 6.2500 mM)?
The value was 0.000.

What about the “Sucralose + test cpd A ΔF/F0” value ([2]; sucralose 12.5000 mM) of the same molecule?
The value was −0.015.

What about the “Sucralose + test cpd A ΔF/F0” value ([2]; sucralose 25.0000 mM) of the same molecule?
The value was −0.035.

And the “Sucralose + test cpd A ΔF/F0” value ([2]; sucralose 50.0000 mM)?
Its value is −0.025.

And the “Sucralose + test cpd A ΔF/F0” value ([2]; sucralose 100.0000 mM)?
The value was 0.107.

And the “effect on the response of TAS2R44 to sucralose, in words” value ([2]; test compound at 25 μM)?
Its value is “inhibited; also recorded: inhibit the response of a SABTR to sucralose”.
